According to patent US12274689B2, “Compound for the management of feline diabetes” (INCREVET, INC., priority 2019, dated 2025):
Marks after values point to notes of the source that are not given here.

Experiments:
healthy cats = assay: 21-day high-dose study in healthy cats (study 3); assay type: in vivo, cat; settings: 15 mg kg^−1 bid (30 mg kg^−1 day^−1) for 21 days
Text: All cats regained weight when the dosing ended. Because diabetic cats are often presented as a result of weight loss, the degree of […] would clearly be adverse and incompatible with treatment.

[1] = tested on: healthy purpose-bred cats; assay: urinary glucose excretion in healthy cats after capsule dosing (studies 1 and 2); assay type: in vivo, cat
ZDF rats = assay: plasma glucose in male Zucker Diabetic Fatty rats, daily oral dosing (study 338); assay type: in vivo; settings: for plasma glucose levels / plasma glucose levels, Day 21 Δ: male ZDF rats; for plasma glucose levels, Day 21 Δ: change Day 0 to Day 21
db/db mice = assay: non-fasting blood glucose in db/db mice, 28-day oral dosing (study 350); assay type: in vivo; settings: for non-fasting blood glucose concentration: n = 8
human SGLT2 = target: T1, human SGLT2 (Homo sapiens, UniProt P31639); assay: selectivity for human SGLT2 compared to human SGLT1
T1 sequence (P31639 1-672): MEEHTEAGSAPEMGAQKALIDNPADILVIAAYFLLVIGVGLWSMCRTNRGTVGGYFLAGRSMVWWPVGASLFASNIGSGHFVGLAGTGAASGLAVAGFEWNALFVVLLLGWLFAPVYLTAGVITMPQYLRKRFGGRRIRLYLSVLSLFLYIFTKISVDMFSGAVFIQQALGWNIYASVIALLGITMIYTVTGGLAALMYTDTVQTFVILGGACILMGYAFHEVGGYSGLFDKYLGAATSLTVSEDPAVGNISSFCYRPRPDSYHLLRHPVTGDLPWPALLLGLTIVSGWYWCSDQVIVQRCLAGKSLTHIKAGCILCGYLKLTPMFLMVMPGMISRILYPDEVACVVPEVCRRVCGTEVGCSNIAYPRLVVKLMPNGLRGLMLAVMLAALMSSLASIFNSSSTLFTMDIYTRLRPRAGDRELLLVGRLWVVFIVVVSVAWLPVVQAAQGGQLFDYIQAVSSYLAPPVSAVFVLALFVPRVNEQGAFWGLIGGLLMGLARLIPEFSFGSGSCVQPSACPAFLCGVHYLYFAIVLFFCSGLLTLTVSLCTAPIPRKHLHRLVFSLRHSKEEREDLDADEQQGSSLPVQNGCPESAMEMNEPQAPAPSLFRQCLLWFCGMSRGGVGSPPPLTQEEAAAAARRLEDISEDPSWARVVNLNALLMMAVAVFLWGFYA

OC[C@H]1O[C@@H](c2ccc(Cl)c(Cc3ccc(OCCOC4CC4)cc3)c2)[C@H](O)[C@@H](O)[C@@H]1O [bexagliflozin, (2S,3R,4R,5S,6R)-2-(4-chloro-3-(4-(2-cyclopropoxyethoxy)benzyl)phenyl)-6-(hydroxymethyl)tetrahydro-2H-pyran-3,4,5-triol]
body weight (healthy cats): cats lost weight throughout the study | doses with undesired effects attributed to SGLT1 inhibition, multiple of doses producing the maximum pharmacodynamic effect ([1]; healthy cats): 5 to 10 times | loose stools and/or diarrhea ([1]; healthy cats exposed to the higher quantities): dose-dependent increase in the severity of loose stools and/or diarrhea | dose at which the maximum glucosuria was observed ([1]; healthy cats, gelatin capsules, urinary glucose excretion over 24 h after dosing): approximately 3 mg kg^−1 | change in plasma glucose levels (ZDF rats; ZDF rats, after 7 days, 0.067 mg kg^−1): +2.8% | change in plasma glucose levels (ZDF rats; ZDF rats, after 7 days, 0.2 mg kg^−1): −16.8% | change in plasma glucose levels (ZDF rats; ZDF rats, after 7 days, 0.67 mg kg^−1): −17.1% | change in plasma glucose levels (ZDF rats; ZDF rats, after 7 days, 2.0 mg kg^−1): −25.3% | change in plasma glucose levels (ZDF rats; ZDF rats, after 14 days, 0.067 mg kg^−1): +9.5% | change in plasma glucose levels (ZDF rats; ZDF rats, after 14 days, 0.2 mg kg^−1): −5.6% | change in plasma glucose levels (ZDF rats; ZDF rats, after 14 days, 0.67 mg kg^−1): −8.1% | change in plasma glucose levels (ZDF rats; ZDF rats, after 14 days, 2.0 mg kg^−1): −25.1% | change in plasma glucose levels (ZDF rats; ZDF rats, after 21 days, 0.067 mg kg^−1): +15.5% | change in plasma glucose levels (ZDF rats; ZDF rats, after 21 days, 0.2 mg kg^−1): +4.3% | change in plasma glucose levels (ZDF rats; ZDF rats, after 21 days, 0.67 mg kg^−1): +1.5% | change in plasma glucose levels (ZDF rats; ZDF rats, after 21 days, 2.0 mg kg^−1): −15.4% | blood glucose, level below which it was not reduced (ZDF rats; ZDF rats, sole agent, any dose group): ≥ 287 mg/dL | plasma glucose levels (ZDF rats; 0.067 mg kg^−1 oral once daily, Day 0): 373.2 ± 29.5 mg/dL | plasma glucose levels (ZDF rats; 0.067 mg kg^−1 oral once daily, Day 7): 383.7 ± 33.1 mg/dL | plasma glucose levels (ZDF rats; 0.067 mg kg^−1 oral once daily, Day 14): 408.6 ± 19.6 mg/dL | plasma glucose levels (ZDF rats; 0.067 mg kg^−1 oral once daily, Day 21): 431.0 ± 19.7 mg/dL | plasma glucose levels, Day 21 Δ (ZDF rats; 0.067 mg kg^−1 oral once daily): +57.8 ± 41.7 mg dL^−1 | plasma glucose levels (ZDF rats; 0.2 mg kg^−1 oral once daily, Day 0): 386.6 ± 28.2 mg/dL | plasma glucose levels (ZDF rats; 0.2 mg kg^−1 oral once daily, Day 7): 321.8 ± 19.5 mg/dL | plasma glucose levels (ZDF rats; 0.2 mg kg^−1 oral once daily, Day 14): 364.9 ± 13.1 mg/dL | plasma glucose levels (ZDF rats; 0.2 mg kg^−1 oral once daily, Day 21): 403.2 ± 20.1 mg/dL | plasma glucose levels, Day 21 Δ (ZDF rats; 0.2 mg kg^−1 oral once daily): +16.6 ± 36.6 mg dL^−1 | plasma glucose levels (ZDF rats; 0.67 mg kg^−1 oral once daily, Day 0, n = 10): 384.4 ± 27.5 mg/dL | plasma glucose levels (ZDF rats; 0.67 mg kg^−1 oral once daily, Day 7): 318.7 ± 32.0 mg/dL | plasma glucose levels (ZDF rats; 0.67 mg kg^−1 oral once daily, Day 14): 353.4 ± 18.9 mg/dL | plasma glucose levels (ZDF rats; 0.67 mg kg^−1 oral once daily, Day 21, n = 9): 374.2 ± 37.3 mg/dL | plasma glucose levels, Day 21 Δ (ZDF rats; 0.67 mg kg^−1 oral once daily, n = 9): +5.4 ± 30.8^b mg dL^−1 | plasma glucose levels (ZDF rats; 2 mg kg^−1 oral once daily, Day 0): 384.8 ± 16.5 mg/dL | plasma glucose levels (ZDF rats; 2 mg kg^−1 oral once daily, Day 7): 287.4 ± 27.4 mg/dL | plasma glucose levels (ZDF rats; 2 mg kg^−1 oral once daily, Day 14): 288.3 ± 17.1 mg/dL | plasma glucose levels (ZDF rats; 2 mg kg^−1 oral once daily, Day 21): 325.4 ± 13.0 mg/dL | plasma glucose levels, Day 21 Δ (ZDF rats; 2 mg kg^−1 oral once daily): -59.4 ± 22.4 mg/dL | non-fasting blood glucose concentration (db/db mice; 0.067 mg kg^−1 oral once a day, Day 0, mean ± SD): 565.5 ± 75.9 mg/dL | non-fasting blood glucose concentration (db/db mice; 0.067 mg kg^−1 oral once a day, Day 1, 6 h post-dose, mean ± SD): 526.0 ± 97.0 mg/dL | non-fasting blood glucose concentration (db/db mice; 0.067 mg kg^−1 oral once a day, Day 7, 6 h post-dose, mean ± SD): 459.5 ± 69.9 mg/dL | non-fasting blood glucose concentration (db/db mice; 0.067 mg kg^−1 oral once a day, Day 14, 6 h post-dose, mean ± SD): 441.7 ± 119.6 mg/dL | non-fasting blood glucose concentration (db/db mice; 0.067 mg kg^−1 oral once a day, Day 21, 6 h post-dose, mean ± SD): 497.5 ± 98.8 mg/dL | non-fasting blood glucose concentration (db/db mice; 0.067 mg kg^−1 oral once a day, Day 28, 6 h post-dose, mean ± SD): 472.1 ± 113.3 mg/dL | non-fasting blood glucose concentration (db/db mice; 0.067 mg kg^−1 oral once a day, Day −3, mean ± SD): 563.6 ± 105.2 mg/dL | non-fasting blood glucose concentration (db/db mice; 0.2 mg kg^−1 oral once a day, Day 0, mean ± SD): 590.0 ± 92.9 mg/dL | non-fasting blood glucose concentration (db/db mice; 0.2 mg kg^−1 oral once a day, Day 1, 6 h post-dose, mean ± SD): 411.3 ± 86.8 mg/dL | non-fasting blood glucose concentration (db/db mice; 0.2 mg kg^−1 oral once a day, Day 7, 6 h post-dose, mean ± SD): 390.8 ± 92.3 mg/dL | non-fasting blood glucose concentration (db/db mice; 0.2 mg kg^−1 oral once a day, Day 14, 6 h post-dose, mean ± SD): 364.7 ± 121.6 mg/dL | non-fasting blood glucose concentration (db/db mice; 0.2 mg kg^−1 oral once a day, Day 21, 6 h post-dose, mean ± SD): 379.8 ± 47.4 mg/dL | non-fasting blood glucose concentration (db/db mice; 0.2 mg kg^−1 oral once a day, Day 28, 6 h post-dose, mean ± SD): 333.5 ± 79.9 mg/dL | non-fasting blood glucose concentration (db/db mice; 0.2 mg kg^−1 oral once a day, Day −3, mean ± SD): 546.9 ± 92.8 mg/dL | non-fasting blood glucose concentration (db/db mice; 0.67 mg kg^−1 oral once a day, Day 0, mean ± SD): 574.4 ± 90.5 mg/dL | non-fasting blood glucose concentration (db/db mice; 0.67 mg kg^−1 oral once a day, Day 1, 6 h post-dose, mean ± SD): 404.3 ± 86.4 mg/dL | non-fasting blood glucose concentration (db/db mice; 0.67 mg kg^−1 oral once a day, Day 7, 6 h post-dose, mean ± SD): 370.1 ± 96.5 mg/dL | non-fasting blood glucose concentration (db/db mice; 0.67 mg kg^−1 oral once a day, Day 14, 6 h post-dose, mean ± SD): 379.6 ± 58.6 mg/dL | non-fasting blood glucose concentration (db/db mice; 0.67 mg kg^−1 oral once a day, Day 21, 6 h post-dose, mean ± SD): 300.6 ± 97.6 mg/dL | non-fasting blood glucose concentration (db/db mice; 0.67 mg kg^−1 oral once a day, Day 28, 6 h post-dose, mean ± SD): 306.7 ± 98.4 mg/dL | non-fasting blood glucose concentration (db/db mice; 0.67 mg kg^−1 oral once a day, Day −3, mean ± SD): 565.5 ± 87.5 mg/dL | non-fasting blood glucose concentration (db/db mice; 2 mg kg^−1 oral once a day, Day 0, mean ± SD): 541.6 ± 84.4 mg/dL | non-fasting blood glucose concentration (db/db mice; 2 mg kg^−1 oral once a day, Day 1, 6 h post-dose, mean ± SD): 382.7 ± 111.9 mg/dL | non-fasting blood glucose concentration (db/db mice; 2 mg kg^−1 oral once a day, Day 7, 6 h post-dose, mean ± SD): 330.8 ± 101.1 mg/dL | non-fasting blood glucose concentration (db/db mice; 2 mg kg^−1 oral once a day, Day 14, 6 h post-dose, mean ± SD): 303.5 ± 74.0 mg/dL | non-fasting blood glucose concentration (db/db mice; 2 mg kg^−1 oral once a day, Day 21, 6 h post-dose, mean ± SD): 319.7 ± 74.2 mg/dL | non-fasting blood glucose concentration (db/db mice; 2 mg kg^−1 oral once a day, Day 28, 6 h post-dose, mean ± SD): 315.2 ± 81.3 mg/dL | non-fasting blood glucose concentration (db/db mice; 2 mg kg^−1 oral once a day, Day −3, mean ± SD): 603.9 ± 88.9 mg/dL | blood glucose values, % of control (db/db mice; 28-day administration of 0.067 mg kg^−1): 79.74% | blood glucose values, % of control (db/db mice; 28-day administration of 0.2 mg kg^−1): 56.33% | blood glucose values, % of control (db/db mice; 28-day administration of 0.67 mg kg^−1): 51.81% | blood glucose values, % of control (db/db mice; 28-day administration of 2 mg kg^−1): 53.25% | blood glucose, level below which it was not reduced (db/db mice; sole agent, any dose group): ≥ 300 mg/dL | selectivity for human SGLT2 compared to human SGLT1 (human SGLT2): 2400 fold
